Ends that are not written are not given here.
Biological target: T1, γENaC (Homo sapiens, UniProt P51170)
T1 construct: expressed in transfected cells; host or cells: HEK293T cells (lysate)
Assay: Biotinylated peptide pull-down of ENaC subunits from HEK293T cells
Format: binding
Settings: subunits individually expressed
Method: HEK293T cells were transfected with double-tagged human ENaC subunits with HA and V5 epitopes at the N- and C-termini, respectively, in combination with wild-type untagged subunit cDNA. When all three ENaC subunits were expressed, 0.5 μg of each subunit were transfected per well. When expressed individually, 0.75 μg of the subunit were transfected per well. The transfected cells were lysed 24 h later using NP-40 buffer with 1× complete EDTA-free protease inhibitor (Roche, Basel, Switzerland). The lysate was centrifuged at 16,300×g for 15 minutes at 4° C. and the supernatant collected. Protein concentration was determined using the BCA assay and 500 μg of protein plus 0.25 mg peptide and 100 μL of neutravidin were added to a spin column and rotated end-over-end at 4° C. for 24 h (all ThermoFisher Scientific, Rockford, Ill., USA). Flow-through was collected by centrifugation at 1000×g for 30 s. […] The membrane was probed using 1:1000 anti-V5 antibody (Invitrogen, Carlsbad, Calif., USA) overnight at 4° C. in 3% fish gelatin in TBS-T. The blot was then incubated for 1 h at room temperature with an ECL sheep anti-mouse IgG secondary antibody and detected by ECL reagent (ThermoFisher Scientific, Waltham, Mass., USA) or by incubation with a goat anti-mouse IRDye secondary antibody and analyzed by an Odyssey infrared imaging system (LI-COR Biosciences, Lincoln, Nebr., USA).

T1 sequence (P51170 whole entry): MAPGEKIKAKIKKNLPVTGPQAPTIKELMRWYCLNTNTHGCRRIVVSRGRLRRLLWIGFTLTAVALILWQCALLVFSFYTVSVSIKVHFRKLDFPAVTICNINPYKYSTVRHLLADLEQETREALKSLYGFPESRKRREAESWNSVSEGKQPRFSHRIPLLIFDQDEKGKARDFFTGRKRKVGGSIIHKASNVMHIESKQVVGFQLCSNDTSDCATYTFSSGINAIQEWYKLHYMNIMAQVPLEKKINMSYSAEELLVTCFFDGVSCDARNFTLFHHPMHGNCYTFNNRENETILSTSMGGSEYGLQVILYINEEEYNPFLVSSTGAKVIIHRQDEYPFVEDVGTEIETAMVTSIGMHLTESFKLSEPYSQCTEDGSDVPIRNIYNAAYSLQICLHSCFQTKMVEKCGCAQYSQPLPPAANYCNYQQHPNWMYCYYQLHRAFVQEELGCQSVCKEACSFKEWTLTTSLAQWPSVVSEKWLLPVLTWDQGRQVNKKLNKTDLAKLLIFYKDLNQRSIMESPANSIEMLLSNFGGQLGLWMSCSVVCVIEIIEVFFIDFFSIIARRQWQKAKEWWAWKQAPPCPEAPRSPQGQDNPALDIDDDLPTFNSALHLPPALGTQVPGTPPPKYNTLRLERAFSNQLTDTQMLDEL

Sequence: GGLPVPLDQTLPLNVNPA [S18]
- binding to γENaC (pull-down): without any detectable binding

Source: patent US9127040B2, “Regulation of sodium channels by PLUNC proteins” (The University of North Carolina at Chapel Hill, priority 2011, dated 2015)
